According to PMC7822030, “Hybrid Inhibitors of DNA Gyrase A and B: Design, Synthesis and Evaluation” (Pharmaceutics, 2020):
Read-outs that look alike come from different tables or passages of the source.

Columns and labels:
[1] = target: T1, E. coli DNA gyrase (Escherichia coli, UniProt P0AES4+P0AES6); assay: E. coli DNA gyrase supercoiling assay; assay type: biochemical
T1 construct: purchased Inspiralis, Norwich, UK
Protocol: (§1) The assay for determination of the IC50 values was performed according to previously reported procedures.
(§2) Briefly, inhibitory activities were determined using supercoiling (for DNA gyrase) and relaxation (for topoisomerase IV) assay kits (Inspiralis, Norwich, UK) on streptavidin-coated 96-well microtiter plates from Thermo Scientific Pierce (Thermo Fisher Scientific, Waltham, MA, USA). First, the plates were rehydrated with Wash Buffer and the biotinylated oligonucleotide TFO1 was then immobilized. After washing off the unbound oligonucleotide with Wash Buffer, the enzyme assay was performed. Into each well was added 24 µL of mixture containing 6 µL of Assay Buffer (containing ATP), 0.75 µL of relaxed (for E. coli DNA gyrase supercoiling assay) or supercoiled (for E. coli topoisomerase IV relaxation assay) pNO1 plasmid and 17.25 µL of water. Additionally, 3 µL of a solution of the inhibitor in 10% DMSO containing 0.008% Tween 20 and 3 µL of enzyme (1.5 U) in Dilution Buffer were also added to the wells. […] The TF buffer was added to terminate the enzymatic reaction and after additional incubation for 30 min at room temperature, which allowed for triplex formation (biotin–oligonucleotide–plasmid), the unbound plasmid was washed off using TF buffer. Promega Diamond dye in T10 buffer was then added. […] Here, the compounds were diluted using 2-fold serial dilution steps of the given compound. GraphPad Prism 6.0 software was used to calculate the IC50 values, which were determined in at least two independent measurements, and their means are given as the final result. […] Dose-response curves can be found in Supplementary Materials.

[2] = target: T2, E. coli topoisomerase IV (Escherichia coli, UniProt P0AFI2+P20083); assay: E. coli topoisomerase IV relaxation assay; assay type: biochemical; conditions: for Inhibition of topoisomerase IV (in words): relaxation assay
T2 construct: purchased Inspiralis, Norwich, UK
Protocol: as §1, §2

[3] = system: A. baumannii ATCC 17978; assay: MIC broth microdilution, A. baumannii; assay type: cell-based; conditions: Acinetobacter baumannii, ATCC17978, read-out: MIC A. baumannii ATCC #
From the text: (§3) E. coli MG1655 originated from the laboratory collection of Dr. Csaba Pál. […] E. coli K-12 BW25113 single-gene knockout mutant lines ΔdapF, ΔmrcB, ΔsurA, ΔacrB and ΔtolC originated form the Keio collection copy owned by the laboratory of Dr. Csaba Pál.
(§4) Cation-adjusted Mueller Hinton II broth (MHBII) was used for growth of the bacteria under standard laboratory conditions, for antimicrobial susceptibility tests, and for selection of resistant variants. To prepare the MHBII broth, 22 g MHBII powder (containing 3 g beef extract, 17.5 g acid hydrolysate of casein, 1.5 g starch; Becton, Dickinson and Co., Franklin Lakes, NJ, USA) was dissolved in 1 L water. MHBII agar was prepared by addition of 14 g agar (Bacto; Molar Chemicals, Halásztelek, Hungary) to 1 L broth.
(§5) Minimum inhibitory concentrations (MICs) were determined using a standard serial broth microdilution technique, according to the Clinical and Laboratory Standards Institute guidelines. […] For Enterococcus sp., the cells were plated in BHI agar plates, and BHI broth was used to determine the MICs. […] Following the dilutions, each well was seeded with 5 × 10^4 bacterial cells. Each measurement was performed in three parallel replicates, and to avoid possible edge effects in the microwell plates, the outside rows (A, H) were filled with sterile medium. Following the inoculations, the plates were covered with the lids and wrapped in polyethylene plastic bags, to minimize evaporation but to allow O2 transfer. […] After incubation, the OD600 of each well was measured using a microplate reader (Synergy 2; Biotek, Winooski, VT, USA).

[4] = system: P. aeruginosa ATCC 27863; assay: MIC broth microdilution, P. aeruginosa; assay type: cell-based; conditions: Pseudomonas aeruginosa
From the text: as §3, §4, §5

[5] = system: K. pneumoniae ATCC 10031; assay: MIC broth microdilution, K. pneumoniae; assay type: cell-based; conditions: Klebsiella pneumoniae, ATCC10031, read-out: MIC K. pneumoniae ATCC #
From the text: as §3, §4, §5

[6] = system: E. cloacae spp. cloacae ATCC 13047; assay: MIC broth microdilution, E. cloacae; assay type: cell-based, Enterobacter cloacae; conditions: Enterobacter cloacae, ATCC13047, read-out: MIC E. cloacae spp. cloacae ATCC #
[7] = system: E. coli ATCC 25922; assay: MIC broth microdilution, E. coli ATCC 25922; assay type: cell-based; conditions: Escherichia coli, ATCC25922, read-out: MIC E. coli ATCC #
From the text: as §3, §4, §5

[8] = system: E. coli BW25113 WT; assay: MIC, E. coli BW25113 wild-type; assay type: cell-based; conditions: Escherichia coli, BW25113, read-out: Minimum Inhibitory Concentration E. coli BW# WT
From the text: as §3, §4, §5

[9] = system: E. coli BW25113 ΔacrB; assay type: cell-based, Escherichia coli
From the text: as §3, §4, §5

[10] = system: E. coli BW25113 ΔdapF; assay type: cell-based, Escherichia coli
From the text: as §3, §4, §5

[11] = system: E. coli BW25113 ΔmrcB; assay type: cell-based, Escherichia coli
From the text: as §3, §4, §5

[12] = system: E. coli BW25113 ΔsurA; assay type: cell-based, Escherichia coli
From the text: as §3, §4, §5

[13] = system: E. coli BW25113 ΔtolC; assay type: cell-based, Escherichia coli; conditions: for MIC change, ΔtolC mutant versus wild-type E. coli BW25113: improvement of MIC in impaired efflux pump mutant
From the text: as §3, §4, §5

[14] = system: E. coli MG1655 WT; assay: MIC, E. coli MG1655 wild-type with PAβN; assay type: cell-based, Escherichia coli; conditions: for MIC: Escherichia coli, MG1655, read-out: Minimum Inhibitory Concentration E. coli MG# WT, 50 µg/mL PAβN, molar conversion in parentheses; for Minimum Inhibitory Concentration E. coli MG1655 WT: in the presence of 50 µg/mL PAβN
From the text: as §3, §4
as §5, with “USA). […]” for “USA).”

[15] = system: E. coli MG1655 GyrA S83L, D87N ParC S80I, E84G; assay: microbe, parasite or virus in culture; assay type: cell-based, Escherichia coli; conditions: for MIC: Escherichia coli, MG1655, read-out: Minimum Inhibitory Concentration E. coli MG# GyrA S83L, D87N ParC S80I, E84G; for Minimum Inhibitory Concentration E. coli MG1655 GyrA S83L, D87N ParC S80I, E84G: in the presence of 50 µg/mL PAβN
From the text: as §3, §4, §5
(§6) These mutated amino acids are the most common sites for target-based resistance in E. coli.

[16] = system: E. coli MG1655 GyrB R136C; assay: microbe, parasite or virus in culture; assay type: cell-based, Escherichia coli; conditions: for MIC: Escherichia coli, MG1655, read-out: Minimum Inhibitory Concentration E. coli MG# GyrB R#C; for Minimum Inhibitory Concentration E. coli MG1655 GyrB R136C: in the presence of 50 µg/mL PAβN
From the text: as §3, §4, §5, §6

[17] = molar conversion in parentheses
[18] = ATCC27863, 18 h, read-out: MIC P. aeruginosa ATCC #
[19] = ATCC27863, read-out: MIC P. aeruginosa ATCC #, molar conversion in parentheses, read-out: MIC P. aeruginosa ATCC 27863

| Compound | IC50 [1] | IC50 [2] | Inhibition of topoisomerase IV (in words) [2] | MIC ([3]; broth microdilution, 18 h) | MIC [3, 17] | MIC [4, 18] | MIC [4, 19] | MIC ([5]; broth microdilution, 18 h) | MIC [5, 17] | MIC ([6]; broth microdilution, 18 h) | MIC [6, 17] | MIC ([7]; broth microdilution, 18 h) | MIC [7, 17] | MIC [8, 17] | MIC ([8]; wild-type) | Minimum Inhibitory Concentration E. coli BW25113 ΔacrB ([9]; efflux pump mutant) | Minimum Inhibitory Concentration E. coli BW25113 ΔacrB [9, 17] | Minimum Inhibitory Concentration E. coli BW25113 ΔdapF ([10]; impaired cell-wall mutant) | Minimum Inhibitory Concentration E. coli BW25113 ΔdapF [10, 17] | Minimum Inhibitory Concentration E. coli BW25113 ΔmrcB ([11]; impaired cell-wall mutant) | also measured |
| --- | --- | --- | --- | --- | --- | --- | --- | --- | --- | --- | --- | --- | --- | --- | --- | --- | --- | --- | --- | --- | --- |
| Cc1[nH]c(C(=O)Nc2nc3ccc(C(=O)N4CCN(c5cc6c(cc5F)c(=O)c(C(=O)O)cn6C5CC5)CC4)cc3s2)c(Cl)c1Cl [Compound 3a, 1-Cyclopropyl-7-(4-(2-(3,4-dichloro-5-methyl-1H-pyrrole-2-carboxamido)benzo[d]thiazole-6-carbonyl)piperazin-1-yl)-6-fluoro-4-oxo-1,4-dihydroquinoline-3-carboxylic acid] | 0.45 ± 0.18 µM | 1 ± 0.15 µM | low micromolar | 16 µg/mL | 23.4 µM | 64 µg/mL | 93.6 µM | 0.5 µg/mL | 0.73 µM | 4 µg/mL | 5.85 µM | 2 µg/mL | 2.93 µM | 5.85 µM | 4 µg/mL | 4 µg/mL | (5.85 µM) | 4 µg/mL | (5.85 µM) | 4 µg/mL | Minimum Inhibitory Concentration E. coli BW25113 ΔmrcB [11, 17]: (5.85 µM); Minimum Inhibitory Concentration E. coli BW25113 ΔsurA ([12]; impaired cell-wall mutant): 4 µg/mL; Minimum Inhibitory Concentration E. coli BW25113 ΔsurA [12, 17]: (5.85 µM); Minimum Inhibitory Concentration E. coli BW25113 ΔtolC ([13]; efflux pump mutant): 1 µg/mL; MIC change, ΔtolC mutant versus wild-type E. coli BW25113 [13]: 4 fold; Minimum Inhibitory Concentration E. coli BW25113 ΔtolC [13, 17]: (1.46 µM); MIC [14]: 0.73 µM; Minimum Inhibitory Concentration E. coli MG1655 WT [14]: 0.5 µg/mL; MIC [15]: 23.4 µM; Minimum Inhibitory Concentration E. coli MG1655 GyrA S83L, D87N ParC S80I, E84G [15]: 16 µg/mL; MIC [16]: 0.73 µM; Minimum Inhibitory Concentration E. coli MG1655 GyrB R136C [16]: 0.5 µg/mL; melting point: > 300 °C |
| Cc1[nH]c(C(=O)Nc2nc3c(OCc4ccccc4)cc(C(=O)N4CCN(c5cc6c(cc5F)c(=O)c(C(=O)O)cn6C5CC5)CC4)cc3s2)c(Cl)c1Cl [Compound 3b, 7-(4-(4-(Benzyloxy)-2-(3,4-dichloro-5-methyl-1H-pyrrole-2-carboxamido)benzo[d]thiazole-6-carbonyl)piperazin-1-yl)-1-cyclopropyl-6-fluoro-4-oxo-1,4-dihydroquinoline-3-carboxylic acid] | 3.3 ± 1.5 µM | > 10 µM | lack of activity | > 64 µg/mL | > 81 µM | > 64 µg/mL | > 81 µM | > 64 µg/mL | > 81 µM | > 64 µg/mL | > 81 µM | > 64 µg/mL | > 81 µM | > 81 µM | > 64 µg/mL | >64 µg/mL | (>81.0 µM) | >64 µg/mL | (>81.0 µM) | >64 µg/mL | Minimum Inhibitory Concentration E. coli BW25113 ΔmrcB [11, 17]: (>81.0 µM); Minimum Inhibitory Concentration E. coli BW25113 ΔsurA ([12]; impaired cell-wall mutant): >64 µg/mL; Minimum Inhibitory Concentration E. coli BW25113 ΔsurA [12, 17]: (>81.0 µM); Minimum Inhibitory Concentration E. coli BW25113 ΔtolC ([13]; efflux pump mutant): 16 µg/mL; Minimum Inhibitory Concentration E. coli BW25113 ΔtolC [13, 17]: (20.3 µM); MIC [14]: 81 µM; Minimum Inhibitory Concentration E. coli MG1655 WT [14]: 64 µg/mL; MIC [15]: > 81 µM; Minimum Inhibitory Concentration E. coli MG1655 GyrA S83L, D87N ParC S80I, E84G [15]: >64 µg/mL; MIC [16]: 40.5 µM; Minimum Inhibitory Concentration E. coli MG1655 GyrB R136C [16]: 32 µg/mL; melting point: > 300 °C |
| Cc1[nH]c(C(=O)Nc2nc3c(OCc4ccccc4)cc(C(=O)NCCOCCN4CCN(c5cc6c(cc5F)c(=O)c(C(=O)O)cn6C5CC5)CC4)cc3s2)c(Cl)c1Cl.Cl [Compound 11b, 1-(2-(2-(4-(Benzyloxy)-2-(3,4-dichloro-5-methyl-1H-pyrrole-2-carboxamido)benzo[d]thiazole-6-carboxamido)ethoxy)ethyl)-4-(3-carboxy-1-cyclopropyl-6-fluoro-4-oxo-1,4-dihydroquinolin-7-yl)piperazin-1-ium chloride] | 0.014 ± 0.009 µM | 2.5 ± 1.1 µM | low micromolar | 64 µg/mL | 72.9 µM | > 64 µg/mL | > 72.9 µM | 1 µg/mL | 1.14 µM | 16 µg/mL | 18.2 µM | 4 µg/mL | 4.56 µM | 9.11 µM | 8 µg/mL | 8 µg/mL | (9.11 µM) | 8 µg/mL | (9.11 µM) | 8 µg/mL | Minimum Inhibitory Concentration E. coli BW25113 ΔmrcB [11, 17]: (9.11 µM); Minimum Inhibitory Concentration E. coli BW25113 ΔsurA ([12]; impaired cell-wall mutant): 8 µg/mL; Minimum Inhibitory Concentration E. coli BW25113 ΔsurA [12, 17]: (9.11 µM); Minimum Inhibitory Concentration E. coli BW25113 ΔtolC ([13]; efflux pump mutant): 1 µg/mL; MIC change, ΔtolC mutant versus wild-type E. coli BW25113 [13]: 8 fold; Minimum Inhibitory Concentration E. coli BW25113 ΔtolC [13, 17]: (1.14 µM); MIC [14]: 1.14 µM; Minimum Inhibitory Concentration E. coli MG1655 WT [14]: 1 µg/mL; MIC [15]: 4.56 µM; Minimum Inhibitory Concentration E. coli MG1655 GyrA S83L, D87N ParC S80I, E84G [15]: 4 µg/mL; MIC [16]: 2.28 µM; Minimum Inhibitory Concentration E. coli MG1655 GyrB R136C [16]: 2 µg/mL |
